Source: ChEMBL document CHEMBL4422622, “Identification of Mineralocorticoid Receptor Modulators with Low Impact on Electrolyte Homeostasis but Maintained Organ Protection” (J Med Chem, 2019)
Values after ≈ are worked out from the molar mass of the structure shown.

What was measured:
[1] = target: T1, Mineralocorticoid receptor (Homo sapiens, UniProt P08235)
T1 sequence (P08235 whole entry): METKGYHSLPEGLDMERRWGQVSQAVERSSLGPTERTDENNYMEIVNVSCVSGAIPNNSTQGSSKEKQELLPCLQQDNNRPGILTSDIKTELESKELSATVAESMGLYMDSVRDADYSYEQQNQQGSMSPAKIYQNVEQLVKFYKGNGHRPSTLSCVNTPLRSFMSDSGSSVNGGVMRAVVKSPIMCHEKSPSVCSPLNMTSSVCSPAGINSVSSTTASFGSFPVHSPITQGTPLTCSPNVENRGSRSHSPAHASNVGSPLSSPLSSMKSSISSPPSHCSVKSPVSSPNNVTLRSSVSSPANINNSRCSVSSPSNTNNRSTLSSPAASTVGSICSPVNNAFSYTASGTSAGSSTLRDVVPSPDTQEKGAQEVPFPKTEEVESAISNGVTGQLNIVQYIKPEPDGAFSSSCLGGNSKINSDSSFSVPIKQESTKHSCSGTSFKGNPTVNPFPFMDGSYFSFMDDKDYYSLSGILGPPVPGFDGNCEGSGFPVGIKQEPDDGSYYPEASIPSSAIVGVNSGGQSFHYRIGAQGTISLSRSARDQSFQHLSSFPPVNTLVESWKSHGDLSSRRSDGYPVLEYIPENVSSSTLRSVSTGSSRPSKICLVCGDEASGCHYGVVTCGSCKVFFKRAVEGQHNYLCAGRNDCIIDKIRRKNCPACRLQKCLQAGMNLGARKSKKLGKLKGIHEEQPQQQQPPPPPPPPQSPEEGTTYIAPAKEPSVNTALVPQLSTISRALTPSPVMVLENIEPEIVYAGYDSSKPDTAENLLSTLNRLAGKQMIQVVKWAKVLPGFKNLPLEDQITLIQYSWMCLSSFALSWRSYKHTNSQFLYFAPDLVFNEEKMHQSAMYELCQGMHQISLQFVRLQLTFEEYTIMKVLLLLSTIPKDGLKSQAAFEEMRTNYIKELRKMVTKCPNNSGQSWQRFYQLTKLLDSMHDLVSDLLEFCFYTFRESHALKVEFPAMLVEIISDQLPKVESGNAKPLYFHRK
Description: Displacement of [3H]-aldosterone to human mineralocorticoid receptor LBD by radiometric binding assay

Glucocorticoid receptor = target: T2, Glucocorticoid receptor (Homo sapiens, UniProt P04150)
T2 sequence (P04150 whole entry): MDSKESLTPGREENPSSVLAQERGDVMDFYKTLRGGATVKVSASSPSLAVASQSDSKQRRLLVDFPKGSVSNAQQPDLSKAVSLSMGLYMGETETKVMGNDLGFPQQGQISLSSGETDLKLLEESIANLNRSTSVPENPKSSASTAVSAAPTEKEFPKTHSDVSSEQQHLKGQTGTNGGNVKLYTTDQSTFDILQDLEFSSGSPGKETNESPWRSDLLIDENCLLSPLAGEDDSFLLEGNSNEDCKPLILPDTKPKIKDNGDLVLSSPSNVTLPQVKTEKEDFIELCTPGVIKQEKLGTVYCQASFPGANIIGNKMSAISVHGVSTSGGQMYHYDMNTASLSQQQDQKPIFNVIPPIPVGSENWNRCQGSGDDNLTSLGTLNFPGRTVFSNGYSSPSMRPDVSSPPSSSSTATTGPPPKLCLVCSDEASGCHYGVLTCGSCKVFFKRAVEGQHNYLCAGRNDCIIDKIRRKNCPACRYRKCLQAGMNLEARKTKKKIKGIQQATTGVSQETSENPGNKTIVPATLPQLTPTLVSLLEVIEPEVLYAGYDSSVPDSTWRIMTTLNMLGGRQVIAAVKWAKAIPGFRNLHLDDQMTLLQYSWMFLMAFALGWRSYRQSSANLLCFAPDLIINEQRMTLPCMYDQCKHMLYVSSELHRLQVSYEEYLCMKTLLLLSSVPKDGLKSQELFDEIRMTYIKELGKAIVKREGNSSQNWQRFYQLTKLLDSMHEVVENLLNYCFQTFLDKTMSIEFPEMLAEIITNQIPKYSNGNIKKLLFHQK
Description: Binding affinity to recombinant human GR LBD by fluormone GS red-fluorescence polarization assay

[2] = Kinetic solubility of compound at pH 7.4 after 24 hrs by shake-flask assay; assay type: physicochemical; details: buffer, read-out: -log(solubility) (converted)
[3] = Intrinsic clearance in human liver microsomes at 1 uM measured up to 30 mins in presence of NADPH by LC-MS/MS analysis; assay type: ADME, Microsome; details: read-out: CLH
[4] = Octanol-water partitioning co-efficient, log D of the compound at pH 7.4 by LC/MS/MS analysis; assay type: physicochemical
[5] = target: T1, Mineralocorticoid receptor; remark: listed apart in the source
Description: Antagonist activity at gal4-fused human mineralocorticoid receptor LBD expressed in UAS-MR-bla HEK293 cells by luciferase reporter gene assay

Progesterone receptor = target: T3, Progesterone receptor (Homo sapiens, UniProt P06401); assay: Binding affinity to recombinant human progesterone receptor LBD by fluormone PL red-fluorescence polarization assay
T3 sequence (P06401 whole entry): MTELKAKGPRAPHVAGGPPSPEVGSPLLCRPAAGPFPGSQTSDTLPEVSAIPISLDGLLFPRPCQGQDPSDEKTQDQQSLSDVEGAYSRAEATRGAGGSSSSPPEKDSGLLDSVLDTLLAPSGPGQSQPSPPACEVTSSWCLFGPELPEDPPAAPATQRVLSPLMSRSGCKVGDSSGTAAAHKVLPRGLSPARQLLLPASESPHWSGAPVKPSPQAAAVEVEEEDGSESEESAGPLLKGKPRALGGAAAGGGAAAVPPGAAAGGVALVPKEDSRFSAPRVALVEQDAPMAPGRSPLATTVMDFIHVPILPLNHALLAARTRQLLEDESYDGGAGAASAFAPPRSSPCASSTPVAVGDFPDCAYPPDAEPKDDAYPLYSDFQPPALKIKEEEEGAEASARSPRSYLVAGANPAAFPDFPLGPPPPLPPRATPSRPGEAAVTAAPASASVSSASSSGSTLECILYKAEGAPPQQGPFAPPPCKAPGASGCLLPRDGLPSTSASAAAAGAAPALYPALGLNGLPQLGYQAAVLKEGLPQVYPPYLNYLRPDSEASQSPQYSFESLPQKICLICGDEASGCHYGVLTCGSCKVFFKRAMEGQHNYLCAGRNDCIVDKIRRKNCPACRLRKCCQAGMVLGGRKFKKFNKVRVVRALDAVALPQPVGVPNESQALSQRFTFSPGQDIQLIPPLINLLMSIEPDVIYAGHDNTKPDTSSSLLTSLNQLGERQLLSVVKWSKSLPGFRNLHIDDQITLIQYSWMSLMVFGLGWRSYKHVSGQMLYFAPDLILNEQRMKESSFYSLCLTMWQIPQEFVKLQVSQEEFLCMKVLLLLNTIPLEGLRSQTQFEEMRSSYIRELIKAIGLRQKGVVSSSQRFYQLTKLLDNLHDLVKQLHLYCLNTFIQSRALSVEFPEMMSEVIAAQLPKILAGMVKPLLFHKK

[6] = Intrinsic clearance in Han Wistar rat hepatocytes assessed per million cells at 1 uM after 4 hrs by LC/MS/MS analysis; assay type: ADME, cell-based, Hepatocyte; details: read-out: CLH
Rattus norvegicus = assay: Induction of hyperkalemia in Sprague-Dawley rat fed on low salt diet for 72 hrs assessed as increase in Na+/K+ ratio in urine administered via oral gavage after 8 hrs; assay type: organism-based; details: in vivo
[7] = Terminal half life in Han Wistar rat at 1.2 mg/kg, iv by LC-MS/MS analysis; assay type: ADME, organism-based; details: in vivo, read-out: beta t1/2 (converted)
[8] = Fraction unbound in Han Wistar rat plasma at 1 uM after 4 hrs by LC/MS/MS analysis; assay type: ADME, cell-free
[9] = Clearance in Han Wistar rat at 1.2 mg/kg, iv by LC-MS/MS analysis; assay type: ADME, organism-based; details: in vivo
[10] = Oral bioavailability in Han Wistar rat at 2.1 mg/kg by LC-MS/MS analysis; assay type: ADME, organism-based; details: in vivo
[11] = Volume of distribution at steady state in Han Wistar rat at 1.2 mg/kg, iv by LC-MS/MS analysis; assay type: ADME, organism-based; details: in vivo, read-out: Vdss

SMILES | Ki [1] | Ki (Glucocorticoid receptor) | solubility kinetic at 24 h [2] | microsomal CLint at 1 µM [3] | logD [4] | IC50 [5] | Ki (Progesterone receptor) | hepatocyte CLint at 1 µM [6] | Activity (Rattus norvegicus) | half-life [7] | fraction unbound at 4 h, 1 µM [8] | clearance [9] | bioavailability [10] | Vd [11]
NCC[C@H]1COc2cc(F)ccc2N1C(=O)c1ccc2c(c1)NC(=O)CO2 | > 10000 nM | > 15800 nM | 50.1 µM (≈ 18.6 µg/mL) | 12 µL/min/mg | 0.2 | > 10000 nM | > 50100 nM | – | – | – | – | – | – | –
O=C1COc2ccc(C(=O)N3CCOc4ccccc43)cc2N1 | 1000 nM | – | 15.8 µM (≈ 4.92 µg/mL) | 4 µL/min/mg | 2 | 3160 nM | – | – | – | – | – | – | – | –
CC(C)C[C@H]1COc2cc(F)ccc2N1C(=O)c1ccc2c(c1)NC(=O)CO2 | 2 nM | 50.1 nM | 39.8 µM (≈ 15.3 µg/mL) | > 300 µL/min/mg | 3.8 | 63.1 nM | 2510 nM | – | – | – | – | – | – | –
O=C(O)C[C@H]1COc2cc(Cl)ccc2N1C(=O)c1ccc2c(c1)NC(=O)CO2 | 158 nM | 5010 nM | 1000 µM (≈ 403 µg/mL) | < 3 µL/min/mg | -0.5 | > 10000 nM | > 50100 nM | – | – | – | – | – | – | –
C[C@@H]1COc2cc(F)ccc2N1C(=O)c1ccc2c(c1)NC(=O)CO2 | – | – | – | 11 µL/min/mg | 2.7 | – | > 50100 nM | – | – | – | – | – | – | –
O=C1COc2ccc(C(=O)N3CCCc4ccccc43)cc2N1 | 631 nM | – | 50.1 µM (≈ 15.5 µg/mL) | 27 µL/min/mg | 2.4 | 2000 nM | – | – | – | – | – | – | – | –
C[C@H]1CCc2cc(F)ccc2N1C(=O)c1ccc2c(c1)NC(=O)CO2 | 126 nM | 2000 nM | 126 µM (≈ 42.8 µg/mL) | 190 µL/min/mg | 2.9 | 794 nM | > 50100 nM | – | – | – | – | – | – | –
COC(=O)C[C@H]1COc2cc(F)ccc2N1C(=O)c1ccc2c(c1)NC(=O)CO2 | 63.1 nM | – | 398 µM (≈ 159 µg/mL) | > 300 µL/min/mg | 2.2 | 316 nM | – | – | – | – | – | – | – | –
O=C1COc2ccc(C(=O)N3c4ccc(Cl)cc4C[C@@H]3CCO)cc2N1 | > 10000 nM | > 15800 nM | 2 µM (≈ 0.744 µg/mL) | 40 µL/min/mg | 3.7 | > 10000 nM | > 50100 nM | – | – | – | – | – | – | –
CC(C)C[C@H]1COc2cc(F)ccc2N1C(=O)c1ccc2c(c1)NC(=O)CC2 | 1000 nM | 12600 nM | 79.4 µM (≈ 30.4 µg/mL) | > 300 µL/min/mg | 3.6 | 2510 nM | > 50100 nM | – | – | – | – | – | – | –
C[C@H]1COc2cccnc2N1C(=O)c1ccc2c(c1)NC(=O)CO2 | 1260 nM | > 15800 nM | 1000 µM (≈ 325 µg/mL) | 6 µL/min/mg | 1.3 | > 10000 nM | > 50100 nM | – | – | – | – | – | – | –
COC(=O)[C@@H]1CC2=CC(=O)CC[C@]2(C)[C@@]23O[C@@H]2C[C@@]2(C)[C@@H](CC[C@@]24CCC(=O)O4)[C@H]13 [EPLERENONE] | – | – | 1000 µM (≈ 414 µg/mL) | 9 µL/min/mg | 0.8 | – | – | 5 µL/min/1e6 cells | Toxic | 1.3 h | 0.76 | 17 mL/min/kg | 16% | 1 L/kg
O=C1COc2ccc(C(=O)N3c4ccc(F)cc4OC[C@@H]3CCO)cc2N1 | 200 nM | 1260 nM | 1000 µM (≈ 372 µg/mL) | 15 µL/min/mg | 1.8 | 501 nM | 25100 nM | – | – | – | – | – | – | –
